Literature values, collected in US7572808B2, “Triazolopyridine cannabinoid receptor 1 antagonists” (Bristol-Myers Squibb Company, priority 2005, dated 2009).
Like-named read-outs stand apart in the source and are kept apart here.

Experiments:
[1] = chronic administration for two weeks
[2] = human subjects, 16 week trial period, Phase IIb

| Compound | body weight [1] | body weight [2] |
| --- | --- | --- |
| Cc1c(C(=O)NN2CCCCC2)nn(-c2ccc(Cl)cc2Cl)c1-c1ccc(I)cc1 [AM-251] | substantial body weight reduction |  |
| Cc1c(C(=O)NN2CCCCC2)nn(-c2ccc(Cl)cc2Cl)c1-c1ccc(Cl)cc1 [SR-141716] |  | dose-dependently reduced body weight |
